Assay results as given in article PMC12040169 (PLOS Biology, 2025).

How the values were obtained:
[1] = test system: T1, C. trachomatis L2/434/Bu expressing GFP (CTL2-GFP); test: microbe, parasite or virus in culture; design: C. trachomatis total inclusion area by high-content imaging, normalised to DMSO; settings: Chlamydia trachomatis, HeLa, 28.5 h; total inclusion area; read-out: % of control remaining
T1 construct: L2/434/Bu GFP intracellular growth in HeLa cells
Procedure, shortened: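 A 36,785-compound library was screened using bulk GFP and resorufin fluorescence, followed by Hoechst staining and high-content imaging of inclusions (GFP) and host nuclei. Inclusion area and number served as growth proxies and nuclei counts as a viability proxy. MICs were calculated from these readouts.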

[2] = test system: T2, CTL2-GFP (C. trachomatis L2/434/Bu, GFP-expressing); test: microbe, parasite or virus in culture; design: Intracellular C. trachomatis growth in HeLa cells, bulk GFP fluorescence relative to DMSO; settings: Chlamydia trachomatis, HeLa, 28.5 h; bulk GFP, mean of 2; read-out: % of control remaining
T2 construct: L2/434/Bu, GFP-expressing
Experimental: MICs were calculated as described above.

[3] = in vitro; design: Viability of infected HeLa host cells, resazurin conversion, bulk resorufin fluorescence relative to DMSO; settings: human, hela cells; bulk resorufin, mean of 2

| SMILES | activity at 1 µM [1] | activity at 5 µM [1] | activity at 10 µM [1] | activity at 1 µM [2] | activity at 5 µM [2] | activity at 10 µM [2] | viability at 28.5 h, 1 µM [3] | viability at 28.5 h, 5 µM [3] | viability at 28.5 h, 10 µM [3] |
| --- | --- | --- | --- | --- | --- | --- | --- | --- | --- |
| Cc1cc(C(=O)Nc2ccc(S(=O)(=O)Nc3onc(C)c3C)cc2)no1 [CBK268166] | 89.9% | 77.7% | 61.3% | 113% | 81.5% | 33.7% | 101% | 92.7% | 100% |
| CC(C)NCC(O)Cn1c2c(c3ccccc31)CCc1c-2cnn1-c1ccccc1 (stereo not drawn) [CBK261107] | 102% | 73.8% | 19.6% | 101% | 105% | 19.8% | 87.2% | 89.4% | 82.4% |
| COc1ccccc1N/C(=N\OCc1ccc(Cl)cc1Cl)c1nonc1N [CBK018391] | 89.5% | 84% | 56.1% | 137% | 122% | 103% | 90.7% | 92.4% | 94.7% |
| N#Cc1c(Nc2cccc(C(F)(F)F)c2)sc(C(=O)c2ccc3c(c2)OCO3)c1N [CBK074399] | 2.52% | 2.64% | 6.62% | 10.1% | 11.2% | 17.7% | 87.7% | 85.9% | 81.1% |
| Cc1ccc(CNC(=O)OCc2cccnc2C)o1 [CBK200131] | 120% | 61.9% | 91.2% | 120% | 111% | 119% | 102% | 104% | 101% |
| O=C(O)c1[nH]c2ccccc2c1C(c1ccsc1)c1c(C(=O)O)[nH]c2ccccc12 [CBK267811] | 49.5% | 80.4% | 22.6% | 113% | 109% | 85.2% | 99.3% | 106% | 121% |
| Cc1cccc(OCC(C)NC(=O)NCCc2cnn(C)c2)c1 (stereo not drawn) [CBK304887] | 120% | 47.6% | 19.4% | 115% | 43.5% | 16.5% | 100% | 98.5% | 89.3% |
| COc1ccc([C@H]2CN(Cc3ccccc3)[C@@H]3CCN(C(=O)Cc4ccccc4)C[C@H]23)cc1 [CBK286285] | 109% | 95.8% | 41.4% | 130% | 111% | 49.2% | 93.8% | 97.6% | 104% |
| Cc1nn(C)c(N2CCN(C(=O)OC(C)(C)C)CC2)c1N [CBK034182] | 122% | 92% | 53.1% | 120% | 91.7% | 38.1% | 90.6% | 94.8% | 88.5% |
| COc1cc(NS(=O)(=O)c2ccc(Nc3nc(-c4sc(N)nc4C)cs3)cc2)nc(OC)n1 [CBK262796] | 110% | 55.3% | 28.8% | 106% | 58.4% | 32.6% | 93.6% | 92.2% | 88% |
| O=C(NCC1CC1)c1ccc(N2CCN(C(=O)c3ccccc3C(F)(F)F)CC2)nn1 [CBK153220] | 146% | 79.1% | 94.4% | 149% | 123% | 138% | 104% | 93% | 95.9% |
| Cc1cc(C)nc(NS(=O)(=O)c2ccc(Nc3ccc4nonc4c3[N+](=O)[O-])cc2)n1 [CBK261444] | 130% | 121% | 67.5% | 132% | 92.2% | 60.3% | 92.5% | 86.4% | 79.7% |
| CCC(=O)N1CCCc2cc(C(O)CN3CCN(c4ccc(F)cc4)CC3)ccc21 (stereo not drawn) [CBK286480] | 104% | 58.2% | 7.99% | 116% | 62% | 10.5% | 93% | 84% | 90.3% |
| OCCNc1nc(Nc2ccc(Br)cc2)nc2ccccc12 [CBK266724C] | 59.5% | 2.92% | 0.726% | 69.3% | 0.15% | 0% | 122% | 116% | 121% |
| COc1ccc2[nH]cc(CCNC(=O)c3ccc(Cl)c(Cl)c3)c2c1 [CBK115870] | 109% | 78.8% | 40.9% | 132% | 66.5% | 33.8% | 93.3% | 88.8% | 92.1% |
| CCc1ccc(S(=O)(=O)Nc2cc(SCC(=O)O)c(O)c3ccccc23)cc1 [CBK265580] | 84.1% | 15.3% | 7.41% | 97.7% | 47% | 37.3% | 95.6% | 88.8% | 81.9% |
| Cc1ccc(OCC(O)CN2CCN(c3nc(-c4ccccc4)ns3)CC2)c([N+](=O)[O-])c1 (stereo not drawn) [CBK074696] | 113% | 55.9% | 68.2% | 147% | 120% | 133% | 104% | 99.5% | 102% |
| CC(C)(CN)CN(Cc1c[nH]c(-c2ccccc2)n1)C(=O)Nc1ccc(C(C)(C)C)cc1 [CBK002462C] | 106% | 55.9% | 29% | 139% | 101% | 29.5% | 91.6% | 89.2% | 72.5% |
| CC(Nc1cccc2ccccc12)C(=O)N/N=C/c1c(O)ccc2ccccc12 (stereo not drawn) [CBK262678] | 100% | 47.4% | 21% | 132% | 74.4% | 72.2% | 90.9% | 83% | 74.2% |
| COc1ccc2cc3c(nc2c1)OC(=O)N(CC1CC1)C3 [CBK282432] | 90.9% | 15.2% | 0.584% | 92.7% | 19% | 0.603% | 112% | 108% | 110% |
